# What was measured:
# NUDT1 = NUDT1 (Homo sapiens, UniProt P36639); test: Gel-based AfBPP labelling of recombinant NUDT1 spiked into human lysate; assay type: binding; design: Full length NUDT1 gene synthesis; N-terminal His tag with thrombin site from pET28a(+) (NdeI/XhoI) (N, cleaved yes); made in house; host or cells: E. coli BL21 (DE3); conditions: parent compound added before probe
# AIFM1 = target: T1, AIFM1 (Homo sapiens, UniProt O95831); test: Gel-based labelling of recombinant AIFM1 spiked into HEK-293 lysate; assay type: binding; conditions: excess compound added prior to probe
# T1 construct: made in house; host or cells: E. coli Rosetta2
# T1 sequence (O95831 102-613): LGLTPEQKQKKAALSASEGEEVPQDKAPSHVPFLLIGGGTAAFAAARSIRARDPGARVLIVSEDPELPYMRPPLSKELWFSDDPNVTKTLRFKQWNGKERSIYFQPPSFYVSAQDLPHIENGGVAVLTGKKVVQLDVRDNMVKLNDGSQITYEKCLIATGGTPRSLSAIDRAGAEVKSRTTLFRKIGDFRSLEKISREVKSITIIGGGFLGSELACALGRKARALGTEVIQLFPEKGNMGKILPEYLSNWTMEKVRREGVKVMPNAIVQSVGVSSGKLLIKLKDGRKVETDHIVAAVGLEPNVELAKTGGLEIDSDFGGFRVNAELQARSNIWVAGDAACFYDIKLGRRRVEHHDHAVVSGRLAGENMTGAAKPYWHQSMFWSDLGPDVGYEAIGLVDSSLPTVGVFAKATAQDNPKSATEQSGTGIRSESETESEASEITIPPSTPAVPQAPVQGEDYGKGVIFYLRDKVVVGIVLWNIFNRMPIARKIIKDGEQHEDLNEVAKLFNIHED
# Protocol: AIFM1 expression & purification
# Recombinant AIFM1 was expressed in a Rosetta2 E. coli strain. Bacterial growth was conducted in LB media supplemented with riboflavin and FAD shaking at 37°C and 180 rpm. Expression was induced with 1.0 mM IPTG and incubated for further 16 h before harvesting. Cells were harvested on ice in PBS and cell pellets stored at -20°C. Cells were lysed by French press and the 6xHis-tagged constructs were purified by Immobilized Metal Affinity Chromatography using Ni Sepharose (6 Fast Flow, GE). The centrifugation-cleared bacterial lysate was bound to beads in binding buffer (200 mM NaCl, 20 mM Tris/Cl pH = 7.4). […]
# For gel-based fluorescence labelling of recombinant AIFM1, 1.7 µM recombinant protein was spiked - in to PBS or PBS -diluted HEK293 cell lysate ( 100 µg per reaction sample). […]
# Click Master-mix (8 µL, 100 µM TAMRA-azide, Baseclick, Neuried, Germany, Cat# BCFA-008-10, 500 µM BTTAA ligand, Jena Bioscience, Jena, Germany, CLK -067, 1 mM CuSO4) was added and the CuAAC reaction started by addition of 2 µL of aq. sodium ascorbate (c end= 2 mM). […] Fluorescence scanning was performed using a Las-3000 fluorescence darkbox (Fujifilm, Minato, Japan) with a Fujinon VRF 43LMD Lens, 605DF40 filter and 520 nm EPI excitation wavelength and loading controls were developed with Coomassie stain afterwards. […]
smiles,measurement,setting,value
O=C(O)c1cn(C2CC2)c2cc(N3CCNCC3)c(F)cc2c1=O [Ciprofloxacin],competition of Cipro P2 / Levo P2 labeling of recombinant NUDT1,NUDT1,competed
same,competition of Cipro P1 labelling of recombinant AIFM1,AIFM1,strong reduction of signal intensity

# From article PMC12036814 (Angewandte Chemie (International Ed. in English), 2025)
